In patent US9724312B2, “Agent for the prevention, improvement or treatment of retinal disease” (ROHTO PHARMACEUTICAL CO., LTD., priority 2012, dated 2017):

Experiments:
[1] = test system: rat models with glaucoma induced by NMDA; experiment: Protective effect for retinal ganglion cells against nerve damage by NMDA (thickness of inner plexiform layer); format: in vivo; conditions: once a day
Source text: In recent years the glutamate analogue NMDA (N-methyl-D-aspartate) has been widely reported to be one of causative agents of neurodegenerative diseases including Alzheimer's disease. In the ophthalmic field, NMDA is considered to be involved in optic nerve damage in glaucoma (Brain Research Bulletin, 81 (2010) 349-358). Accordingly, in this experiment rat models with glaucoma induced by NMDA were used to evaluate the neuroprotective effect of GGA.
To Sprague-Dawley (SD) rats, the all-trans form, the 5Z-mono-cis form and teprenone were separately pre-administered by oral administration (Test Example 1), intravitreal administration (Test Example 2) or ocular instillation administration (Test Example 3) and 5 μL of NMDA was administered into the vitreous body to induce nerve damage. For Test Example 2, a marketed therapeutic eye drop for glaucoma, AIPHAGAN (trade name), was intravitreally administered as a positive control once a day for five days. For each of Test Examples, a base not containing GGA or AIPHAGAN was administered as a control in the same manner as described above.
The dosage and regimen of Test Examples 1 to 3 are shown in Table 1 and the constitution of the base used in each tests are shown in Table 2.
Three days after administration of NMDA, the eyeballs were harvested, fixed with half Karnovsky's fixative for 24 hours, embedded in paraffin, thin sectioned and stained with hematoxylin-eosin (HE) to prepare histopathological sections. The histological sections were observed under an optical microscope and the thickness (μm) of the inner plexiform layer (IPL) of the retina was measured. From the thickness of the inner plexiform layer (IPL) of the retina, the neuroprotective effects of the test preparations were evaluated.

[2] = test system: PC12; experiment: Protective effect against ischemic cell death induced by hypoxia and low glucose (Cell Titer-Glo cell viability); format: cell-based, rat; conditions: 30 μM, 2 h pre-incubation, then low glucose/zero percent O2 8 h, FIG. 1, n=10, Tukey-Kramer
Source text: The progress of visual impairment in glaucoma is associated with retinal ganglion cell (RGC) death due to blood flow failure occurring near the optic nerve (Folia Pharmacol. Jpn. 128, 255-258 (2006)). With the use of PC12, which is a typical neural cell line established from rat adrenal […] pheochromocytoma and used also as a model cell for the functional evaluation of RGC (J Neurosci Res. 2000 May 15; 60(4): 495-503), the cytoprotective effect of GGA against ischemic cell death induced by hypoxia and low glucose was evaluated.
Test samples were prepared as follows. The test substances were four types of GGAs that contain the all-trans form and the 5Z-mono-cis form at a weight ratio of 10:0, 8:2, 6:4, and 0:10, respectively. […]
After 8 hours of incubation, 100 μL of an equivalent mixture of a cell viability detection reagent Cell Titer-Glo (Promega) and PBS was added to each well and the luminescence produced by the reaction with ATP in living cells was measured with a luminometer (GloMax; Promega). The cell viability was calculated from the measured luminescence by the following formula and the cytoprotective effect of GGA against oxidative stress by hydrogen peroxide was examined. Cell viability(%)=100×[(luminescence of base- or GGA-treated group)/(luminescence of non-treated group)]

[3] = test system: glaucoma rat model; conditions: intraperitoneal administration; cited from earlier work
[4] = test system: retinal detachment-induced animal; conditions: intraperitoneal administration; cited from earlier work
[5] = test system: multiple sclerosis mouse model; conditions: oral administration; cited from earlier work
[6] = test system: mouse with retinal injury induced by ischemia; conditions: oral administration; cited from earlier work
[7] = test system: mouse with visual cell damage induced by light irradiation; conditions: oral administration; cited from earlier work
[8] = Test Example 1: oral 800 mg/kg, 2 days, NMDA 4 mM, FIG. 6, Dunnett

Molecule | neuroprotective effect against nerve damage by NMDA compared with base (IPL thickness) [1, 8] | neuroprotective effect against nerve damage by NMDA compared with base (IPL thickness) ([1]; Test Example 2: intravitreal 0.05% w/v, 5 days, NMDA 40 mM, FIG. 7, Tukey-Kramer) | cytoprotective effect compared with GGA 6:4 [2] | expression of heat shock protein 72 [3] | retinal ganglion cell death and optic nerve damage [3] | apoptosis of visual cells [4] | expression of heat shock protein 70 [4] | cell loss in the ganglion [5] | number of degenerating axons in the optic nerve [5] | visual function [5] | number of surviving retinal neurons [6] | induction of thioredoxin and heat shock protein 72 in the retinal pigment epithelium [7]
CC(=O)CC/C=C(/C)CC/C=C(\C)CC/C=C(\C)CCC=C(C)C [5Z-mono-cis form, (5Z,9E,13E)-6,10,14,18-tetramethyl-5,9,13,17-nonadecatetrae n-2-one] | significant neuroprotective effects | significant neuroprotective effects | significantly higher cytoprotective effects | – | – | – | – | – | – | – | – | –
teprenone | did not show a significant neuroprotective effect | – | – | induced the expression of heat shock protein 72 | reduced retinal ganglion cell death and thereby ameliorated optic nerve damage | reduced the apoptosis of visual cells significantly | induced the expression of heat shock protein 70 | prevented cell loss in the ganglion | reduced the number of degenerating axons in the optic nerve | improved the visual function | significantly increased the number of surviving retinal neurons | induced thioredoxin and heat shock protein 72 in the retinal pigment epithelium
